What was measured:
[1] = system: gastric secretion stimulated by pentagastrin; test: Inhibition of gastric secretion stimulated by pentagastrin (Experiment 3-2); format: in vivo, Sprague-Dawley male rats; details: intravenous
[2] = target: T1, H^+ /K^+ ATPase (proton pump), gastric vesicles (Sus scrofa, UniProt P19156); test: Determination of H+/K+ ATPase activity, Lineweaver-Burk kinetics versus K+ (Experiment 4-2); format: biochemical, pig
T1 construct: Gastric vesicles were prepared from pig stomach; from tissue; host or cells: pig stomach, lyophilized gastric vesicles
Procedure: Gastric vesicles were prepared from pig stomach by the method described in Saccomani G., et al., J. Biol. Chem. 250, 4802-4809 (1975). The vesicles were lyophilized and kept at -70° C. The protein content was determined by the method of Lowry et al., using bovine serum albumin as standard[see Lowry, O. H., Rosebrough, N. J. and Randall, R. J., J. Biol. Chem. 193, 265-275 (1951)].
Test tubes were divided into 4 groups, each having 3 test tubes. As a control group, group 1 was added with the 10 μl of DMSO. Groups 2, 3 and 4 were administered with the compound prepared in example 34 whose final concentration are 0.17 μM, 0.33 μM and 0.67 μM, respectively. Each group was further divided into 3 small groups, in which enzymes were activated by ATP; ATP and Mg^++; and ATP, Mg^++ and K^+, respectively.
To all of the test tubes, were added 100 μl of lyophilized vesicles prepared at the concentration of 25 μg protein/ml and then 90 μl of 5 mM Pipes/Tris buffer pH 7.0. The compound prepared in Example 34 was added to each Group until the final concentration thereof became 0.17, 0.33 or 0.67 μM, respectively, They were preincubated for 15 minutes.
50 μl of ATP(3 mM) was added to each of the four Groups and the 50 μl of MgCl2 (2 mM) was added only to the 2nd and 3rd small groups of all Groups. Further, to the 3rd small groups of all Groups, were added 50 μl of KCl solution of various concentrations(from 0.1 mM to 30 mM) and then 150μl of Pipes/Tris buffer of pH 7.0. To the rest small groups, Pipes/Tris buffer of pH 7.0 was added until the volume became the same as that of the 3rd small group.
The test tube's were incubated at 37° C. for 30 minutes and then the reaction was terminated by adding 25% cold trichloroacetic acid solution. They were centrifuged by means of a microcentrifuge and the supernatant was taken up for the measurement of the released inorganic phosphate content by an automatic analyzer(CIBA CORNING, Express 550).
In accordance with the same procedures as above, except that 15 and 30 μm of omeprazole and 0.75, 1.5 and 3.0 μm of SK&F96067 were used as comparative substances, released inorganic phosphate content was measured.
The released inorganic phosphate contents of the three small groups were considered as the activity of H^+ /K^+ ATPase at each of the concentrations employed. The specific activity of H^+ /K^+ ATPase was calculated from the following equation:
Specific activity=(A-C)-(B-C) . . . (V)
A is the activity of enzyme activated by ATP, Mg^++ and , K^+ ;
B is the activity of enzyme activated by ATP and M^++ and
C is the activity of enzyme activated by ATP.
The specific activity, thus calculated, of Groups 1, 2, 3 and 4 which employed DMSO and the compound of Example 34 at 3 different concentrations were then plotted with respect to the concentration of KCl in FIG. 1 according to the method of Lineweaver-Burk, wherein .box-solid., .quadrature. and .largecircle. represent the respective concentrations of the compound of Example 34 of 0.67 μM, 0.33 μM and 0.17 μM; and .oval-solid. represents concentration of the DMSO compound. FIG. 2 depicts the Lineweaver-Burk plot of the specific activities obtained from SK&F96067, wherein .box-solid., .quadrature. and .largecircle. represent its respective concentrations of 3.0 μM, 1.5 μM, 0.75 μM; and .oval-solid. represents concentration of the DMSO compound. FIG. 3 illustrates the Lineweaver-Burk plot of the specific activities obtained from omeprazole, wherein .oval-solid. and .quadrature. represent its concentrations of 15 μM and 30 μM; and .largecircle. represents the concentration of DMSO.

[3] = target: T2, H^+ /K^+ ATPase, gastric vesicles (Sus scrofa, UniProt P19156); test: Reversibility of inhibition, Dilution and Washout method (Experiment 4-3); format: biochemical, pig
T2 construct: Gastric vesicles were prepared from pig stomach; from tissue; host or cells: pig stomach, lyophilized gastric vesicles
Procedure: The vesicles were lyophilized and kept at -70° C.
To all […] groups, was added 100 μl of lyophilized vesicles prepared in Experiment 4-1 at the concentration of 100 μg protein 1 ml. Then, 5 mM Pipes/Tris buffer(pH 6.4 ) was added to the three groups until the volume of test tubes became 150 μl. After the preincubation for 15 minutes, H^+ /K^+ ATPase activity was measured in accordance with the same procedures as in Experiment 4-2. The concentrations of the test substances as indicated above are the final concentrations.
After the completion of preincubation, each group was diluted 50 times with 5 mM Pipes/Tris buffer(pH 6.4), and then centrifuged for 60 minutes by means of Beckman ultracentrifuge(Model L8-80). The supernatant was discarded and the pellet was suspended with 5 mM Pipes/Tris buffer pH 6.4 until the volume became the same as the preincubation volume.

[4] = system: gastric secretion stimulated by histamine; test: Anti-secretory effects when gastric secretion is stimulated by histamine (Experiment 3-1); format: in vivo, Sprague-Dawley male rats; details: intravenous
Procedure: In accordance with the method [see Ghosh and Shild, et al., British Journal of pharmacology 13:54-61 (1958)], anti-secretory effects of the test substances were studied in this Experiment. Sprague-Dawley male rats having a body weight of 200±20 g were divided into 3 groups, Group 1 to be administered with the compound of Example 34, Group 2 to be administered with SK&F96067[see Keeling, D. […] The rats of each Group, deprived of food for 24 hours before the experiment with free access to water, were anesthetized by intraperitoneally administering of 1.5 g/kg of 20% aqueous urethane solution and positioned on the test plate which was heated and maintained at 37° C. The anesthetized rats were cannulated at the right jugular vein for the administration of the test compounds and the left jugular vein for the administration of stimulating substances. After an abdominal incision, tubes were inserted into the esophagus and duodenum, each of which was connected with saline in a thermostat and a fraction collector. […] To the left jugular vein, histamine was administered as a gastric secretion stimulator. […] The gastric secretion inhibition (%) of the test compounds was calculated from the following equation: The gastric secretion inhibition (%) of the test compounds =(A-C)/(A-B)×100 . . . (IV) in which […]

T1 sequence (P19156 2-1034 limits assumed): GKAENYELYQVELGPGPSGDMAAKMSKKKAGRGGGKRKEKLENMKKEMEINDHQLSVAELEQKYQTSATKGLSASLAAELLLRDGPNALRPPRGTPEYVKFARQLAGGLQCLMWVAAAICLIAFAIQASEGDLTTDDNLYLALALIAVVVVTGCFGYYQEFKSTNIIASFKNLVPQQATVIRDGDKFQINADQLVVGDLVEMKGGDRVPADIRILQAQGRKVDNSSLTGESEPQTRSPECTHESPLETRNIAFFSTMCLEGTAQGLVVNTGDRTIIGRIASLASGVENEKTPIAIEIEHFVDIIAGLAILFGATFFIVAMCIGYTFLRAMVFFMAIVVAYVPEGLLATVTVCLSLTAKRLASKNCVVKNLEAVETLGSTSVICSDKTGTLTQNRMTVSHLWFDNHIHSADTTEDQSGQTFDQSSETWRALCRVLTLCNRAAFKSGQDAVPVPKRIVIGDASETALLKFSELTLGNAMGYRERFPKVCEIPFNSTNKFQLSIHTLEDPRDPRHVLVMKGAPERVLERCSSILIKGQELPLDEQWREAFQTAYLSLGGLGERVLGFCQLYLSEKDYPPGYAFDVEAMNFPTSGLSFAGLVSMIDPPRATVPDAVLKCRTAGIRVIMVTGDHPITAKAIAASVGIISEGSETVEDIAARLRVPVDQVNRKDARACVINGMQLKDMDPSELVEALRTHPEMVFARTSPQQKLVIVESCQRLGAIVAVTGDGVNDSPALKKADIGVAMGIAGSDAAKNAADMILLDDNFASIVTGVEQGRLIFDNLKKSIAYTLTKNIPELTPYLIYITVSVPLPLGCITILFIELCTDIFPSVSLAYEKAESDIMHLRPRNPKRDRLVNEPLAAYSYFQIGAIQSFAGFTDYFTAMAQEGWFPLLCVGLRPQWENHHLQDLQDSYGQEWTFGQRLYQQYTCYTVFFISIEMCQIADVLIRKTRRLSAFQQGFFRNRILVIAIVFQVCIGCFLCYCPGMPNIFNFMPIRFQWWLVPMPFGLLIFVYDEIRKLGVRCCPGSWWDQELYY
T1 sequence (P18434 whole entry partner): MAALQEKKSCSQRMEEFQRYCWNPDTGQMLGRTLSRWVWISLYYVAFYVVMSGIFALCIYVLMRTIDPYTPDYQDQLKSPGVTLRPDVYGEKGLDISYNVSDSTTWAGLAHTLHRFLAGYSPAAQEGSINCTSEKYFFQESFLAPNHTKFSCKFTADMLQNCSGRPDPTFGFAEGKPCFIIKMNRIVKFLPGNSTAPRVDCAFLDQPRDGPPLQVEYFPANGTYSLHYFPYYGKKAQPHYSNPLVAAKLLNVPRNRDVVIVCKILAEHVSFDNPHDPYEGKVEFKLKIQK
T2 sequence (P19156 2-1034 limits assumed): as the sequence (P19156 2-1034 limits assumed) above
T2 sequence (P18434 whole entry partner): as the sequence (P18434 whole entry partner) above

CCCC(=O)c1cnc2c(OC)cccc2c1Nc1ccccc1C [SK&F96067]
The gastric secretion inhibition ([1]; 1.0 mg/kg): 32.6%
The gastric secretion inhibition ([1]; 3.0 mg/kg): 64.0%
The gastric secretion inhibition ([1]; 5.0 mg/kg): 77.3%
ED50 ([1]; Rattus norvegicus): 1.85 mg/kg
Competitive inhibition with K+ at the K+ binding site of proton pump ([2]; Lineweaver-Burk plot, KCl 0.1 to 30 mM): inhibited competitively with K^+
Ki ([2]; Lineweaver-Burk, versus K+, pH 7.0): 700 nM
Reversibility of the inhibition of the enzyme activity ([3]; conclusion from Table 4): reversible
Inhibition of H+/K+ ATPase activity before Dilution and Washout ([3]; pH 6.4, Example 34 at 6 μM, omeprazole and SK&F96067 at 60 μM): 80%
The gastric secretion inhibition (%) ([4]; 0.5 mg/kg): 29.8%
The gastric secretion inhibition (%) ([4]; 1.0 mg/kg): 57.1%
The gastric secretion inhibition (%) ([4]; 3.0 mg/kg): 75.9%
ED50 ([4]; Rattus norvegicus, read-out: ED50, gastric secretion inhibition): 0.96 mg/kg
